Laboratory results: patent US6949648B2, “Condensed pyrazole derivatives, process for producing the same and use thereof” (Takeda Pharmaceutical Company Limited, priority 2000, dated 2005)
Where a name gives a salt, the structure may show the parent alone.

melting point [°C]	SMILES
282 to 283	Cc1nn(-c2cccnc2)c2[nH]c3ccccc3c(=O)c12 [Example 2-138, 3-Methyl-1-(3-pyridinyl)-1,9-dihydro-4H-pyrazolo[3,4-b]quinolin-4-one]
160 to 161	CCc1nn(-c2ccccn2)c2nc3cc(F)c(F)cc3c(Cl)c12 [Example 2-200, 4-Chloro-3-ethyl-6,7-difluoro-1-(2-pyridinyl)-1H-pyrazolo[3,4-b]quinoline]
170 to 172	Cc1cccc2c(Cl)c3c(C)nn(-c4ccccn4)c3nc12 [Example 2-35, 4-Chloro-3,8-dimethyl-1-(2-pyridinyl)-1H-pyrazolo[3,4-b]quinoline]
282	Cc1nn(-c2ccccn2)c2nc3ccc([N+](=O)[O-])cc3c(Cl)c12 [Example 2-53, 4-Chloro-3-methyl-6-nitro-1-(2-pyridinyl)-1H-pyrazolo[3,4-b]quinoline]
289 to 292	Cc1nn(-c2ccccn2)c2nc3ccc(Cl)cc3c(N)c12 [Example 2-71, 6-Chloro-3-methyl-1-(2-pyridinyl)-1H-pyrazolo[3,4-b]quinolin-4-ylamine]
> 300	Cc1nn(-c2ccccn2)c2ncc(C(=O)Nc3cccc(F)c3)c(O)c12 [Example 1-13, N-(3-Fluorophenyl)-4-hydroxy-3-methyl-1-(2-pyridinyl)-1H-pyrazolo[3,4-b]pyridine-5-carboxamide]
287 to 290	Cc1nn(-c2ncccn2)c2nc3ccccc3c(N)c12 (as salt: hydrochloride) [Example 1-65, 3-Methyl-1-(2-pyrimidinyl)-1H-pyrazolo[3,4-b]quinolin-4-ylamine hydrochloride]
183 to 186	Cc1cccc2[nH]c3c(c(C)nn3-c3ccccn3)c(=O)c12 [Example 2-31, 3,5-Dimethyl-1-(2-pyridinyl)-1,9-dihydro-4H-pyrazolo[3,4-b]quinolin-4-one]
112 to 114	CCc1c2ccccc2nc2c1c(C)nn2-c1ccccn1 [Example 2-102, 4-Ethyl-3-methyl-1-(2-pyridinyl)-1H-pyrazolo[3,4-b]quinoline]
191	Cc1nn(-c2ccccn2)c2nc3c(F)cccc3c(Cl)c12 [Example 2-84, 4-Chloro-8-fluoro-3-methyl-1-(2-pyridinyl)-1H-pyrazolo[3,4-b]quinoline]
240 to 242	Cc1nn(-c2ccccn2)c2[nH]c3ccc(Br)cc3c(=O)c12 [Example 2-87, 6-Bromo-3-methyl-1-(2-pyridinyl)-1,9-dihydro-4H-pyrazolo[3,4-b]quinolin-4-one]
85 to 87	CCCCN(C)c1c2ccccc2nc2c1c(C)nn2-c1ccccn1 [Example 2-10, N-Butyl-N-methyl-[3-methyl-1-(2-pyridinyl)-1H-pyrazolo[3,4-b]quinolin-4-yl]amine]
110 to 112	CCCN(C)c1c2ccccc2nc2c1c(C)nn2-c1ccccn1 [Example 2-9, N-Methyl-N-[3-methyl-1-(2-pyridinyl)-1H-pyrazolo[3,4-b]quinolin-4-yl]-N-propylamine]
175 to 176	Clc1ccc2nc3c(cnn3-c3ccccn3)c(Cl)c2c1 [Example 2-160, 4,6-Dichloro-1-(2-pyridinyl)-1H-pyrazolo[3,4-b]quinoline]
> 300	Cc1nn(-c2ccccn2)c2ncc(C(=O)NC3CCCCC3)c(O)c12 [Example 1-8, N-Cyclohexyl-4-hydroxy-3-methyl-1-(2-pyridinyl)-1H-pyrazolo[3,4-b]pyridine-5-carboxamide]
157 to 159	Cc1nn(-c2ccccn2)c2nc3ccccc3c(C)c12 [Example 2-101, 3,4-Dimethyl-1-(2-pyridinyl)-1H-pyrazolo[3,4-b]quinoline]
267 to 268	COc1ccc2nc3c(c(C)nn3-c3ccccn3)c(N)c2c1 [Example 2-42, 6-Methoxy-3-methyl-1-(2-pyridinyl)-1H-pyrazolo[3,4-b]quinolin-4-ylamine]
243 to 244	Cc1nn(-c2ccccn2)c2nc(O)c3c(c12)CCCCC3 [Example 1-30, 1-Methyl-3-(2-pyridinyl)-3,6,7,8,9,10-hexahydrocyclohepta[d]pyrazolo[3,4-b]pyridin-5-ol]
184 to 185	Cc1cccnc1-n1nc(C)c2c(=O)c3ccccc3[nH]c21 [Example 2-120, 3-Methyl-1-(3-methyl-2-pyridinyl)-1,9-dihydro-4H-pyrazolo[3,4-b]quinolin-4-one]
108 to 110	Cc1nn(-c2ccccn2)c2nccc(OCc3ccccc3)c12 [Example 1-32, 4-(Benzyloxy)-3-methyl-1-(2-pyridinyl)-1H-pyrazolo[3,4-b]pyridine]
208 to 209	Cc1nn(-c2nccs2)c2nc3ccccc3c(Cl)c12 [Example 2-149, 4-Chloro-3-methyl-1-(1,3-thiazol-2-yl)-1H-pyrazolo[3,4-b]quinoline]
134 to 137	COc1cccc(-n2nc(C)c3c(N)c4cccc(C)c4nc32)n1 [Example 2-127, 3,8-Dimethyl-1-(6-methoxy-2-pyridinyl)-1H-pyrazolo[3,4-b]quinolin-4-ylamine]

melting point [°C]	SMILES
102 to 103	CCCCc1c2ccccc2nc2c1c(C)nn2-c1ccccn1 [Example 2-104, 4-Butyl-3-methyl-1-(2-pyridinyl)-1H-pyrazolo[3,4-b]quinoline]
231 to 233	O=c1c2ccccc2[nH]c2c1c(C(F)(F)F)nn2-c1ccccn1 [Example 2-167, 1-(2-Pyridinyl)-3-trifluoromethyl-1,9-dihydro-4H-pyrazolo[3,4-b]quinolin-4-one]
239 to 240	COC(=O)c1ccc2c(Cl)c3c(C)nn(-c4ccccn4)c3nc2c1 [Example 2-66, Methyl 4-chloro-3-methyl-1-(2-pyridinyl)-1H-pyrazolo[3,4-b]quinoline-7-carboxylate]
191 to 192	Cc1cc(C)nc(-n2nc(C)c3c(Cl)c4ccccc4nc32)n1 [Example 2-147, 4-Chloro-1-(4,6-dimethyl-2-pyrimidinyl)-3-methyl-1H-pyrazolo[3,4-b]quinoline]
199 to 200	COC(=O)c1ccc2nc3c(c(C)nn3-c3ccccn3)c(Cl)c2c1 [Example 2-63, Methyl 4-chloro-3-methyl-1-(2-pyridinyl)-1H-pyrazolo[3,4-b]quinoline-6-carboxylate]
144 to 145	Cc1nn(-c2cccnc2)c2nc3ccccc3c(Cl)c12 [Example 2-136, 4-Chloro-3-methyl-1-(3-pyridinyl)-1H-pyrazolo[3,4-b]quinoline]
126 to 128	COc1c2ccccc2nc2c1c(C)nn2-c1cccnc1 [Example 2-139, 4-Methoxy-3-methyl-1-(3-pyridinyl)-1H-pyrazolo[3,4-b]quinoline]
254 to 255	Cc1nn(-c2ccccn2)c2[nH]c3ccc(Cl)cc3c(=O)c12 [Example 2-72, 6-Chloro-3-methyl-1-(2-pyridinyl)-1,9-dihydro-4H-pyrazolo[3,4-b]quinolin-4-one]
121 to 122	CCCCCc1c2ccccc2nc2c1c(C)nn2-c1ccccn1 [Example 2-106, 3-Methyl-4-pentyl-1-(2-pyridinyl)-1H-pyrazolo[3,4-b]quinoline]
238 to 239	COc1cc2[nH]c3c(c(C)nn3-c3ccccn3)c(=O)c2cc1OC [Example 2-48, 6,7-Dimethoxy-3-methyl-1-(2-pyridinyl)-1,9-dihydro-4H-pyrazolo[3,4-b]quinolin-4-one]
181 to 182	Cc1nc2c(c(C)nn2-c2ccccn2)c(O)c1Cc1ccccc1 [Example 1-20, 5-Benzyl-3,6-dimethyl-1-(2-pyridinyl)-1H-pyrazolo[3,4-b]pyridin-4-ol]
172 to 173	Cc1nn(-c2ccccn2)c2[nH]c3c(c(=O)c12)CCCC3 [Example 2-194, 3-Methyl-1-(2-pyridinyl)-1,5,6,7,8,9-hexahydro-4H-pyrazolo[3,4-b]quinolin-4-one]
248 to 251	COc1cccc2c(N)c3c(C)nn(-c4ccccn4)c3nc12.Cl
277 to 280	COc1cc2nc3c(c(C)nn3-c3ccccn3)c(N)c2cc1OC.Cl
263 to 264	Cc1nn(-c2ncccn2)c2[nH]c3ccccc3c(=O)c12 [Example 2-146, 3-Methyl-1-(2-pyrimidinyl)-1,9-dihydro-4H-pyrazolo[3,4-b]quinolin-4-one]
113 to 115	Cc1nn(Cc2ccccn2)c2nc3ccccc3c(Cl)c12 [Example 2-186, 4-Chloro-3-methyl-1-(2-pyridinylmethyl)-1H-pyrazolo[3,4-b]quinoline]
186 to 187	COc1ccc2nc3c(c(C)nn3-c3ccccn3)c(Cl)c2c1 [Example 2-41, 4-Chloro-6-methoxy-3-methyl-1-(2-pyridinyl)-1H-pyrazolo[3,4-b]quinoline]
162 to 163	CCCOc1c2cc(F)c(F)cc2nc2c1c(C)nn2-c1ccccn1 [Example 2-94, 6,7-Difluoro-3-methyl-4-propoxy-1-(2-pyridinyl)-1H-pyrazolo[3,4-b]quinoline]
264 to 266	Cc1nn(-c2ccccn2)c2ncc(C(=O)N3CCCCC3)c(O)c12 [Example 1-10, [4-Hydroxy-3-methyl-1-(2-pyridinyl)-1H-pyrazolo[3,4-b]pyridin-5-yl](1-piperidinyl)methanone]
175 to 176	Cc1nn(-c2ccccn2)c2nc3cc(F)c(F)cc3c(Cl)c12 [Example 2-90, 4-Chloro-6,7-difluoro-3-methyl-1-(2-pyridinyl)-1H-pyrazolo[3,4-b]quinoline]
108 to 109	CCCc1c2ccccc2nc2c1c(C)nn2-c1ccccn1 [Example 2-103, 3-Methyl-4-propyl-1-(2-pyridinyl)-1H-pyrazolo[3,4-b]quinoline]
229 to 231	O=C(O)Cc1nn(-c2ccccn2)c2[nH]c3ccccc3c(=O)c12 [Example 2-177, 2-[4-Oxo-1-(2-pyridinyl)-4,9-dihydro-1H-pyrazolo[3,4-b]quinolin-3-yl]acetic acid]

SMILES	melting point [°C]
Cc1nn(-c2ccccn2)c2nc3ccccc3c(OCC(C)C)c12 [Example 2-20, 4-Isobutoxy-3-methyl-1-(2-pyridinyl)-1H-pyrazolo[3,4-b]quinoline]	117 to 120
